The text below walks through data of ChEMBL document CHEMBL5465560, “Selectivity Literature for EUbOPEN Chemogenomic Library” (2024).

The target in assay [1] is T1, Inhibitor of nuclear factor kappa-B kinase subunit beta (Homo sapiens) (UniProt O14920).
T1 sequence (whole entry): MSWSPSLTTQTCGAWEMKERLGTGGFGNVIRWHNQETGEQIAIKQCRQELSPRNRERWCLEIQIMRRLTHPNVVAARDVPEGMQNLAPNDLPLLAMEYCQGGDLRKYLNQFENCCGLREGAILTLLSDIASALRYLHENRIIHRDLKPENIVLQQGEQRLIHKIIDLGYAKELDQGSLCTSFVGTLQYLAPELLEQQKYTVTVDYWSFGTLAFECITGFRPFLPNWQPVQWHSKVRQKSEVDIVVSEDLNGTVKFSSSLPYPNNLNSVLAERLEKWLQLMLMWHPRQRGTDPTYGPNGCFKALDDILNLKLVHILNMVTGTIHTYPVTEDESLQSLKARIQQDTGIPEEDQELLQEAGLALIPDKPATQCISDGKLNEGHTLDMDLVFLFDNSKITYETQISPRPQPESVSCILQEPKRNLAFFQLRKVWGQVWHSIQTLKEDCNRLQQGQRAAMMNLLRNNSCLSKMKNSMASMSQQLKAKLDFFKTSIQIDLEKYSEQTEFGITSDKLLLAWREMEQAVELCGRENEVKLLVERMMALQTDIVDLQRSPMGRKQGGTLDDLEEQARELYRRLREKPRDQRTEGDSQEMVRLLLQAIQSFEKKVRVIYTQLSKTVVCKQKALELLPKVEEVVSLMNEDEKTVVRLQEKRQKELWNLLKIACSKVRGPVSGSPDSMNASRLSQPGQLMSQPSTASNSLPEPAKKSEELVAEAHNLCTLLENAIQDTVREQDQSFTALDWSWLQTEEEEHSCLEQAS
Nature of the assay: Selectivity interaction (ActivX KiNativ screen (kinase selectivity in THP-1 cell lysates)) EUB0000639a IKBKB. In kind it is subcellular. The settings on record: lysate, at 5 µM.

Assay [2] concerns the target T2, Serine/threonine-protein kinase Nek9 (Homo sapiens) (UniProt Q8TD19).
T2 sequence (whole entry): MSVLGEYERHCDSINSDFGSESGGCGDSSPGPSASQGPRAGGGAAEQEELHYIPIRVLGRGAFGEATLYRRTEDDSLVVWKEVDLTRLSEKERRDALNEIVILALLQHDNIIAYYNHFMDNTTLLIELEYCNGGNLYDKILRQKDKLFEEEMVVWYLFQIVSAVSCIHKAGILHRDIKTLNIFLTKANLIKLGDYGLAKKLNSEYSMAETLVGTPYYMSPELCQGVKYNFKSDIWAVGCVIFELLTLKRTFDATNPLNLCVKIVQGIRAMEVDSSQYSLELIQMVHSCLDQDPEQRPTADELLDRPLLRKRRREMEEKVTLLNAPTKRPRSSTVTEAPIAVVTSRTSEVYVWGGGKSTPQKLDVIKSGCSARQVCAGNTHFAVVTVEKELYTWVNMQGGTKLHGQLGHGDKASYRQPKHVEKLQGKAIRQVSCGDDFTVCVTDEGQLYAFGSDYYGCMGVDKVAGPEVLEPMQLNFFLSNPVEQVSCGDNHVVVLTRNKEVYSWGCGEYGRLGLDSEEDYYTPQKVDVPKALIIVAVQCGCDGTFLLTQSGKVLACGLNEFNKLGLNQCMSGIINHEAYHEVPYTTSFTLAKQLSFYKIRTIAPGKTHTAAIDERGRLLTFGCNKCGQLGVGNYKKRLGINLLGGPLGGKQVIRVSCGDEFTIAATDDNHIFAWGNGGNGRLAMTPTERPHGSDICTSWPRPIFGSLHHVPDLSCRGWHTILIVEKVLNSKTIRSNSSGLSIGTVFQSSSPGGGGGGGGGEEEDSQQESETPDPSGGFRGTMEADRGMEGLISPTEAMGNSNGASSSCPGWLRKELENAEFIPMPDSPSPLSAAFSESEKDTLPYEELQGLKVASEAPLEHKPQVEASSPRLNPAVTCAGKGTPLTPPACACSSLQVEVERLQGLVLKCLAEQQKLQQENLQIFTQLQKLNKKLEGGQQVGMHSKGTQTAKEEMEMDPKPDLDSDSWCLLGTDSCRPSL
Nature of the assay: Selectivity interaction (ActivX KiNativ screen (kinase selectivity in THP-1 cell lysates)) EUB0000639a NEK9. In kind it is subcellular. Conditions: lysate, at 0.04 µM.

For assay [3], the target named is Serine/threonine-protein kinase N1 (Homo sapiens, UniProt Q16512). Conditions: at 10 µM.
In assay [4] the target is Serine/threonine-protein kinase PLK1 (Homo sapiens, UniProt P53350). Conditions: at 10 µM.
Assay [5] has as its target Homeodomain-interacting protein kinase 1 (Homo sapiens, UniProt Q86Z02). Briefly: Selectivity interaction (KinomeScan (DiscoverX)) EUB0001049a HIPK1. Conditions: at 1 µM.
Assay [6] deals with Proto-oncogene tyrosine-protein kinase receptor Ret (Homo sapiens, UniProt P07949). Briefly: Selectivity interaction (Upstate Kinase Profiler service (Millipore)) EUB0000056c RET. Conditions: at 1 µM.
Sequence of Proto-oncogene tyrosine-protein kinase receptor Ret (P07949 whole entry): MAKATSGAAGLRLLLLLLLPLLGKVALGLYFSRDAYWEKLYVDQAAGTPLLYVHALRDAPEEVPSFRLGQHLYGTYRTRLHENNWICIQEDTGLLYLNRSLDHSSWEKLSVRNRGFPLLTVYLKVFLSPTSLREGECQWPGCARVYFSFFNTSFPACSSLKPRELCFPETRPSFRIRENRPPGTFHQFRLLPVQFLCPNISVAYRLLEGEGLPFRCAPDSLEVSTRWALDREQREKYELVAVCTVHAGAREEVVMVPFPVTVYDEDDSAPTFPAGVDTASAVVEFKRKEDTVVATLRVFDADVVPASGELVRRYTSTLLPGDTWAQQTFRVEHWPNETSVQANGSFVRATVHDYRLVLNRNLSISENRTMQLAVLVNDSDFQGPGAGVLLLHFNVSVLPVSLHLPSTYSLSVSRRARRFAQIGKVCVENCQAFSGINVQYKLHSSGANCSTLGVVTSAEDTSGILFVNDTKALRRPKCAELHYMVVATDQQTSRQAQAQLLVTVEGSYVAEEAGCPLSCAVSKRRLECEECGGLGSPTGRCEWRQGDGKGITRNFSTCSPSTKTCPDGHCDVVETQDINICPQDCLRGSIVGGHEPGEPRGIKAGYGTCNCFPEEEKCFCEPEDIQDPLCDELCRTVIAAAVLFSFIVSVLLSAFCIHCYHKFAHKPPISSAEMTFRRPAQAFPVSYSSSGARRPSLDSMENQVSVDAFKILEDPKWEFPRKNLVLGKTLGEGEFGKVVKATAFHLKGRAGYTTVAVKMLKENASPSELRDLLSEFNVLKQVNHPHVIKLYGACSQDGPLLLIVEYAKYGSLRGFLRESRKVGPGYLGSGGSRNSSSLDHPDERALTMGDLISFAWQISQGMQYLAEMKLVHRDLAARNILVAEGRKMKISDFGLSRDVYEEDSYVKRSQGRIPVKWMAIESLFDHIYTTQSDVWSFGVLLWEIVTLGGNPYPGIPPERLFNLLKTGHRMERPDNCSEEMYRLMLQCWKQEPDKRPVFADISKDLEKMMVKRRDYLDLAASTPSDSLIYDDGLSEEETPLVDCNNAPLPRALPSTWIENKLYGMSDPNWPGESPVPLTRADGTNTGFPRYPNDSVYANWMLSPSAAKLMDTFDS

Sequence of Homeodomain-interacting protein kinase 1 (Q86Z02 whole entry, looked up): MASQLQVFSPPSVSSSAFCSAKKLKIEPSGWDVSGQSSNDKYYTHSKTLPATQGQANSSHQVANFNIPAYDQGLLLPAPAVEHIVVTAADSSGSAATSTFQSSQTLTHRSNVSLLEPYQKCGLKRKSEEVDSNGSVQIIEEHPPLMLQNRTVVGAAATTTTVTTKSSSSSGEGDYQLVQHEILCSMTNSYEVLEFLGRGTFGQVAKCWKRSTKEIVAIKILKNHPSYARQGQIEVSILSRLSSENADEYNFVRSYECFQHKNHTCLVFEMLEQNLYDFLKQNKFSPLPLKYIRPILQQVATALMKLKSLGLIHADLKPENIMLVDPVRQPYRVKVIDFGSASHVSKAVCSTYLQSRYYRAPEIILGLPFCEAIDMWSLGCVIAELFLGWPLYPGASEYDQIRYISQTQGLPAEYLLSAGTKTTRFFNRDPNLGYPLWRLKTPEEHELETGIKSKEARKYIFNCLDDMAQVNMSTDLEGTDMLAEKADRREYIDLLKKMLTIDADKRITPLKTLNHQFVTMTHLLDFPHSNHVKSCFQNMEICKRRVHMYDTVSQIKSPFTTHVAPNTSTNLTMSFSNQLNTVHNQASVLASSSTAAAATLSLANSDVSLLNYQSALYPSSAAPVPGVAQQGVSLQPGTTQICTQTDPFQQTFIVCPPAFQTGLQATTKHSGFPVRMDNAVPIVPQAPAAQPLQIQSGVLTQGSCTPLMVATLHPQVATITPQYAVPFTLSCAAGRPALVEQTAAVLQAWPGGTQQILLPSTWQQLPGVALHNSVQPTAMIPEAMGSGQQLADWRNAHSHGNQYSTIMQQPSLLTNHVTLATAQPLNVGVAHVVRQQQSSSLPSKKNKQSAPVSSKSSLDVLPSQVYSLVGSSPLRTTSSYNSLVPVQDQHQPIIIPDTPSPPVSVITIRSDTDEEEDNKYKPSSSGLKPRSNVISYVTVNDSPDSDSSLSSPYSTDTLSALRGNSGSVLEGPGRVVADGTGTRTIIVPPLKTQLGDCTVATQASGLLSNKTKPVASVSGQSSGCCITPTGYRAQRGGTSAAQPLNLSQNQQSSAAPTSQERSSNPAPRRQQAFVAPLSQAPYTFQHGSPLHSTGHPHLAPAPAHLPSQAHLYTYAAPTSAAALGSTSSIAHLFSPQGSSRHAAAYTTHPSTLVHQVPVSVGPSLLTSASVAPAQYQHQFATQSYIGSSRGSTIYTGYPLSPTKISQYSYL
Sequence of Serine/threonine-protein kinase PLK1 (P53350 whole entry): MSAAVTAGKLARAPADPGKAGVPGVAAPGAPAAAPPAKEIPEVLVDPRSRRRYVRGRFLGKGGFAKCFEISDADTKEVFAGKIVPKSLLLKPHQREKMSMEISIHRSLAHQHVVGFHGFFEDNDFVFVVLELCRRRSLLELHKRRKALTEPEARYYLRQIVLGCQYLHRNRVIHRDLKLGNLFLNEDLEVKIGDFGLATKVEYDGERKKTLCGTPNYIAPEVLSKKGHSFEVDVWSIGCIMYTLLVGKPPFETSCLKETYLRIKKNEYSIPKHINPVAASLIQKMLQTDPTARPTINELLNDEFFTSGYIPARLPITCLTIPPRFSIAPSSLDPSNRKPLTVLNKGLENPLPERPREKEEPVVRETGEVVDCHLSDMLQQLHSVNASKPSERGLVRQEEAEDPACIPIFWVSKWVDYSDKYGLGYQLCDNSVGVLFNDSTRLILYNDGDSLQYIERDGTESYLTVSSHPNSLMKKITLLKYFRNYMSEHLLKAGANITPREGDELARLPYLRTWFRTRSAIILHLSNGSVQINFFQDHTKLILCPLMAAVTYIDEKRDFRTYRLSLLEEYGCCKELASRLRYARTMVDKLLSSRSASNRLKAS
Sequence of Serine/threonine-protein kinase N1 (Q16512 2-942 limits assumed): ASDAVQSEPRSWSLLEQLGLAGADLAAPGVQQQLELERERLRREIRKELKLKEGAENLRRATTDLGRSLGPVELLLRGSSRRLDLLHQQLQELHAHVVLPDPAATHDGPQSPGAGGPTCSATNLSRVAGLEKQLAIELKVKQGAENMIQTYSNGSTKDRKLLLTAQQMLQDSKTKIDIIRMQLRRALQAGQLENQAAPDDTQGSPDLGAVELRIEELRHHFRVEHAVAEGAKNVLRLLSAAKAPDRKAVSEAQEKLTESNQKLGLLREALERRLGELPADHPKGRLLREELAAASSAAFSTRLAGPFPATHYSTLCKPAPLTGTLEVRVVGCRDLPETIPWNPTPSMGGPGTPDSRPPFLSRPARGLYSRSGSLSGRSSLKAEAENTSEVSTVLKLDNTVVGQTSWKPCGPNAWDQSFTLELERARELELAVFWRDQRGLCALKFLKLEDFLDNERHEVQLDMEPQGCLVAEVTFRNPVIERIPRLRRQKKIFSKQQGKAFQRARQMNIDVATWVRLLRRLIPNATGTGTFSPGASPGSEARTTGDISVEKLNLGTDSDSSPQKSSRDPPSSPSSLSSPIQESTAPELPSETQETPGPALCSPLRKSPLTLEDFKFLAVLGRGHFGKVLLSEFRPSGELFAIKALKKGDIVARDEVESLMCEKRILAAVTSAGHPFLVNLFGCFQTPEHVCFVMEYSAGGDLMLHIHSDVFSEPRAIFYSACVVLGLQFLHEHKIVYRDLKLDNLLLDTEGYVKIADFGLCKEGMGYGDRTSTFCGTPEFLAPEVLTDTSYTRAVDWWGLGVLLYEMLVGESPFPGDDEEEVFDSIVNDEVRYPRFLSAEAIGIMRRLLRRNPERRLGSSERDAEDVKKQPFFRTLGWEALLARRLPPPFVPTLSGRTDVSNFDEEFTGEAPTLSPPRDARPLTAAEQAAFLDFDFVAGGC

Take `CC[C@@H]1[C@H](F)C(=O)N[C@@H]1COc1nccc2cc(C(N)=O)c(OC)cc12` [ZIMLOVISERTIB]: the % of inhibition is -9.2% in assay [1] and 5% in assay [2].
Take `CCN(CC)CCCCNc1ncc2cc(-c3cc(OC)cc(OC)c3)c(NC(=O)NC(C)(C)C)nc2n1`: the % of control in assay [3] and in assay [4] was 100% in each case.
Turning to `COc1cc(Nc2nc(C)cc(-c3cnn4nc(OC)ccc34)n2)cc(C(F)(F)F)c1`, the % of control in assay [5] was 70%.
In the case of `Cc1ccc(-c2ccc3c(ccc4sc5c(c43)NC[C@@H](C)NC5=O)n2)cn1`, the % of inhibition in assay [6] worked out at 46%.
